According to patent publication EP4342530A1, “SORTILIN MODULATORS” (Insusense ApS, priority 2022, dated 2024):

The molecules below were run against T1, h-Sortilin (Homo sapiens, UniProt Q99523) (assay: Neurotensin scintillation proximity assay (displacement of [3H]-neurotensin binding)). Conditions: 150 nM 6his-Sortilin, 5 nM [3H]-Neurotensin; average of at least 2 determinations; read-out: IC50 [3H]Neurotensin SPA.
T1 sequence (Q99523 78-831): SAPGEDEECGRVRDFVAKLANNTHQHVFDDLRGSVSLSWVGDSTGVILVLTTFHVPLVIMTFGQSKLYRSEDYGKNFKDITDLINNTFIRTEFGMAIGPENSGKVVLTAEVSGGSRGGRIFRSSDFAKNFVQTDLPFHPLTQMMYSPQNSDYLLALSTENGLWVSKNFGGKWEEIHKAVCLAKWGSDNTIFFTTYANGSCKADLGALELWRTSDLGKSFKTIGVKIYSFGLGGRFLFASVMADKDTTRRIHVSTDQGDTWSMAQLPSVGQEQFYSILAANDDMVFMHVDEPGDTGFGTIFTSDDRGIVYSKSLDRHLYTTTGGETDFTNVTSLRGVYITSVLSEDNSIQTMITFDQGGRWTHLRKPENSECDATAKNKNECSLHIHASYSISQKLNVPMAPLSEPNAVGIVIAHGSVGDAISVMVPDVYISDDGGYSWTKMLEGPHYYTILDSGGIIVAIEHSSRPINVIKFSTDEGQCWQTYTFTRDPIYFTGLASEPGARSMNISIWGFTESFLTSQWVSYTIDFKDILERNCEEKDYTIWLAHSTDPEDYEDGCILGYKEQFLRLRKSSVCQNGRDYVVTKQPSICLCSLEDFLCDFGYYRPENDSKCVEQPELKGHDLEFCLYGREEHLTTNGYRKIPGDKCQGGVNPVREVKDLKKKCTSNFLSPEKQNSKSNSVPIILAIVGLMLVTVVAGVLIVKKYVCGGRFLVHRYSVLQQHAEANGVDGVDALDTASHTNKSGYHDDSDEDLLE
Protocol: The exemplified compounds of the invention were tested in a Neurotensin (NTS) scintillation proximity assay (SPA). NTS, which is a 13 amino acid neuropeptide, is a sortilin ligand. The IC50 is a measure of the amount of the compound required to inhibit the binding of NTS to sortilin by 50%. The skilled person will recognise that the lower the IC50 value, the less of the compound needed to achieve the desired effect, and as a result, the chances of undesirable off-target effects are reduced.
Compound affinity was determined by measuring the displacement of [3H]-neurotensin binding to h-Sortilin in SPA format. Total volume of 40 µl in 50 mM HEPES pH 7.4 assay buffer containing 100 mM NaCl, 2.0 mM CaCl2, 0.1% BSA and 0.1% Tween-20. Compound pre-incubation for 30 minutes at room temperature with 150 nM of 6his-Sortilin before 5 nM [3H]-Neurotensin and Ni chelate imaging beads (Perkin Elmer) were added, after 6 hours the plate was read on a ViewLux with 360 s exposure time. Dose-response evaluation of compounds was performed with 8 concentrations of drugs (covering 3 decades). IC50 values were calculated by nonlinear regression using the sigmoid concentration-response (variable slope) using CDD Vault software. All values reported are average of at least 2 determinations.

Row | SMILES | IC50
1 | CC(C)(C)CCC(N[C@@H](CCO)c1ccccc1)C(=O)O (mixture of isomers) [Example 39, 2-{[(1S)-3-hydroxy-1-phenylpropyl]amino}-5,5-dimethylhexanoic acid] | 410 nM
2 | C[C@H](N[C@@H](CCC(C)(C)C)C(=O)O)c1ccc2c(c1)CCCC2 [Example 12] | 610 nM
3 | CN1CCc2cc(CN[C@@H](CCC(C)(C)C)C(=O)O)ccc2C1=O [Example 24, (2S)-5,5-dimethyl-2-{[(2-methyl-1-oxo-1,2,3,4-tetrahydroisoquinolin-6-yl)methyl]amino}hexanoic acid] | 630 nM
4 | CC(C)(C)CC[C@H](NCc1ccc2c(c1)N(C(=O)OC(C)(C)C)CCC2)C(=O)O [Example 32, (2S)-2-[({1-[(tert-butoxy)carbonyl]-1,2,3,4-tetrahydroquinolin-7-yl}methyl)amino]-5,5-dimethylhexanoic acid] | 130 nM
5 | CC(C)(C)CC[C@H](NCc1ccc(Oc2ccccc2)cc1)C(=O)O [Example 36] | 520 nM
6 | CN(C)c1cccc(CN[C@@H](CCC(C)(C)C)C(=O)O)c1 [Example 37, (2S)-2-({[3-(dimethylamino)phenyl]methyl}amino)-5,5-dimethylhexanoic acid] | 570 nM
7 | COc1cccc([C@H](CCO)N[C@@H](CCC(C)(C)C)C(=O)O)c1 [Example 41] | 760 nM
8 | COc1cccc([C@@H](CCO)N[C@@H](CCC(C)(C)C)C(=O)O)c1 [Example 42] | 590 nM
9 | CC(C)(C)CC[C@H](NCc1cnc2c(c1)CCCO2)C(=O)O [Example 53] | 580 nM
10 | C[C@H](N[C@@H](CCC(C)(C)C)C(=O)O)c1ccc2c(c1)OCCC2 [Example 57] | 300 nM
11 | C[C@@H](N[C@@H](CCC(C)(C)C)C(=O)O)c1ccc2c(c1)COCC2 [Example 64] | 420 nM
12 | CC(C)(C)CC[C@H](NCc1cccc2c1COCC2)C(=O)O [Example 67] | 500 nM
13 | C[C@@H](N[C@@H](CCC(C)(C)C)C(=O)O)c1cccc2c1OCCO2 [Example 75] | 1220 nM
14 | CC(C)(C)CC[C@H](NCc1cccc(N2CCCC2)c1)C(=O)O [Example 77] | 350 nM

The remaining molecules from weak to strong by IC50, led by results:

Row | IC50 | SMILES
15 | 6450 nM | CC(C)(C)CC[C@H](N[C@H](CCO)c1ccccc1)C(=O)O [Example 40, (2S)-2-{[(1R)-3-hydroxy-1-phenylpropyl]amino}-5,5-dimethylhexanoic acid]
16 | 960 nM | CC(C)(C)CC[C@H](NCc1cccc(-n2cncn2)c1)C(=O)O [Example 35, (2S)-5,5-dimethyl-2-({[3-(1H-1,2,4-triazol-1-yl)phenyl]methyl}amino)hexanoic acid]
17 | 900 nM | CC(C)(C)CC[C@H](NCc1ccc2c(c1)CCNC2)C(=O)O [Example 15, (S)-5,5-dimethyl-2-(((1,2,3,4-tetrahydroisoquinolin-6-yl)methyl)amino)hexanoic acid]
18 | 900 nM | CC(C)(C)CC[C@H](NCc1ccc2c(c1)CCC(=O)N2)C(=O)O [Example 31, (2S)-5,5-dimethyl-2-{[(2-oxo-1,2,3,4-tetrahydroquinolin-6-yl)methyl]amino}hexanoic acid]
19 | 850 nM | CC(C)(C)CC[C@H](NCc1cccc2c1CCC2)C(=O)O [Example 74]
20 | 820 nM | CC(C)(C)CC[C@H](NCc1cnc2c(c1)OCCO2)C(=O)O [Example 60]
21 | 760 nM | CN1C(=O)CCc2cc(CN[C@@H](CCC(C)(C)C)C(=O)O)ccc21 [Example 27, (2S)-5,5-dimethyl-2-{[(1-methyl-2-oxo-1,2,3,4-tetrahydroquinolin-6-yl)methyl]amino}hexanoic acid]
22 | 700 nM | CC(C)(C)CC[C@H](NCc1ccc2c(c1)CCO2)C(=O)O [Example 66]
23 | 650 nM | CC(C)(C)CC[C@H](NCc1cccc2c1CCOC2)C(=O)O [Example 63]
24 | 650 nM | C[C@H](N[C@@H](CCC(C)(C)C)C(=O)O)c1cccc2c1OCCO2 [Example 73]
25 | 620 nM | CC(C)(C)CC[C@H](NCc1cccc2c1COC2)C(=O)O [Example 65]
26 | 590 nM | C[C@H](N[C@@H](CCC(C)(C)C)C(=O)O)c1ccc2c(c1)COCC2 [Example 69]
27 | 520 nM | Cc1cc(CN[C@@H](CCC(C)(C)C)C(=O)O)cc2c1CCC2 [Example 26, (2S)-5,5-dimethyl-2-{[(7-methyl-2,3-dihydro-1H-inden-5-yl)methyl]amino}hexanoic acid]
28 | 470 nM | CN1CCc2ccc(CN[C@@H](CCC(C)(C)C)C(=O)O)cc2C1 [Example 20, (2S)-5,5-dimethyl-2-{[(2-methyl-1,2,3,4-tetrahydroisoquinolin-7-yl)methyl]amino}hexanoic acid]
29 | 430 nM | CN1CCc2ccc(CN[C@@H](CCC(C)(C)C)C(=O)O)cc2C1=O [Example 23, (2S)-5,5-dimethyl-2-{[(2-methyl-1-oxo-1,2,3,4-tetrahydroisoquinolin-7-yl)methyl]amino}hexanoic acid]
30 | 430 nM | CC(C)(C)CC[C@H](NCc1ccc2c(c1)OCC2)C(=O)O [Example 62]
31 | 310 nM | Cc1cc(CN[C@@H](CCC(C)(C)C)C(=O)O)cc2c1CCCO2 [Example 55]
32 | 290 nM | CC(C)(C)CC[C@H](NCc1ccc2c(c1)NC(=O)CC2)C(=O)O [Example 29, (2S)-5,5-dimethyl-2-{[(2-oxo-1,2,3,4-tetrahydroquinolin-7-yl)methyl]amino}hexanoic acid]
